Values of other authors as cited in patent US20060189550A1, “Immunostimulatory, Covalently lipidated oligonucleotides” (Biomira Inc., priority 2002, published 2006).

Conditions: Table K-2, reference compounds; experimental database value from LogKow

Structure (SMILES)	LogP Exp
Cc1c[nH]c2ccccc12 [3-methyl indole]	2.60
CCSC [Ethane, (methylthio)-]	1.54
CCCCOC [methyl n-butyl ether]	1.66
O=c1ccc2cc3ccoc3cc2o1 [psoralen]	1.67
